Among the data in ChEMBL document CHEMBL2413070, “Histone Deacetylase 4 (HDAC4) Inhibitors: A Promising Treatment for Huntington's Disease” (ACS Med Chem Lett, 2013) are IC50 values, retold here.

For test [1], the target named is T1, Protein deacetylase HDAC6 (Homo sapiens, UniProt Q9UBN7).
T1 sequence (Q9UBN7 whole entry): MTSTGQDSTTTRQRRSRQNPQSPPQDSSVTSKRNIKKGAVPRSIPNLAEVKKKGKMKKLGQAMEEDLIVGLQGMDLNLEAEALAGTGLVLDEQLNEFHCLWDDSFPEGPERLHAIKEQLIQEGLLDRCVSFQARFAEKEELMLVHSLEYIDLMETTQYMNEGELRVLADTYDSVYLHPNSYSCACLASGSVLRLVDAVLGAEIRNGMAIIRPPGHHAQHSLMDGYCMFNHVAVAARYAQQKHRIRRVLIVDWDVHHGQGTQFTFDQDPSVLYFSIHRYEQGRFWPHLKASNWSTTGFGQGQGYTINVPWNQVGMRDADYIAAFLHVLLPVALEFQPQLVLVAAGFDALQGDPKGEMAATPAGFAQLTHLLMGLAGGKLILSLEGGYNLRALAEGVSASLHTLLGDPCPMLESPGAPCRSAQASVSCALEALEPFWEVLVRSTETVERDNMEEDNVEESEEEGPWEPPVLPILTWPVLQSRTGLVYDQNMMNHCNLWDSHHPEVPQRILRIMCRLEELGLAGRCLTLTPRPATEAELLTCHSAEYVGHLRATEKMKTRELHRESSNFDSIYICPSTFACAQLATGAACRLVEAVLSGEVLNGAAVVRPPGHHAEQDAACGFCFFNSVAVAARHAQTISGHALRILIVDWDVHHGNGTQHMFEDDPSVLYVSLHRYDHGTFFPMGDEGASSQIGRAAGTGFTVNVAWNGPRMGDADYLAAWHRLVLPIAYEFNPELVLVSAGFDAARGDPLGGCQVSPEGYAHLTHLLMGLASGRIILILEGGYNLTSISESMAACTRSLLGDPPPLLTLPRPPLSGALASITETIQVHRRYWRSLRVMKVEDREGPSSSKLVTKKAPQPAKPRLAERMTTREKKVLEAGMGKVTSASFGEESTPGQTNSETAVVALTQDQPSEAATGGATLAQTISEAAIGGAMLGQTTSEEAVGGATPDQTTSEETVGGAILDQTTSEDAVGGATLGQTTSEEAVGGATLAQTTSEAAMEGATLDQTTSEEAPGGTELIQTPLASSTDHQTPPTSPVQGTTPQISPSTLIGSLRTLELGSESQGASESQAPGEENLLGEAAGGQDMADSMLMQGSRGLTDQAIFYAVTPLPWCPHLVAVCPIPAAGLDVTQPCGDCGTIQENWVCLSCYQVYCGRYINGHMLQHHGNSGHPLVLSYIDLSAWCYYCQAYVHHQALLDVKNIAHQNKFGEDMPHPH
Put plainly: Inhibition of recombinant full length human HDAC-6 expressed in baculovirus expression system using acetyl-Gly-Ala-Lys(acetyl)-AMC as substrate after 2 hrs by fluorescence microplate reader analysis.

The target of the next test is Histone deacetylase 1 (Homo sapiens, UniProt Q13547). Nature of the test: Inhibition of recombinant full length human HDAC-1 expressed in baculovirus expression system using acetyl-Gly-Ala-Lys(acetyl)-AMC as substrate after 2 hrs by fluorescence microplate reader analysis.

Bounds are passed on as bounds.

Chain of Histone deacetylase 1 (Q13547 whole entry): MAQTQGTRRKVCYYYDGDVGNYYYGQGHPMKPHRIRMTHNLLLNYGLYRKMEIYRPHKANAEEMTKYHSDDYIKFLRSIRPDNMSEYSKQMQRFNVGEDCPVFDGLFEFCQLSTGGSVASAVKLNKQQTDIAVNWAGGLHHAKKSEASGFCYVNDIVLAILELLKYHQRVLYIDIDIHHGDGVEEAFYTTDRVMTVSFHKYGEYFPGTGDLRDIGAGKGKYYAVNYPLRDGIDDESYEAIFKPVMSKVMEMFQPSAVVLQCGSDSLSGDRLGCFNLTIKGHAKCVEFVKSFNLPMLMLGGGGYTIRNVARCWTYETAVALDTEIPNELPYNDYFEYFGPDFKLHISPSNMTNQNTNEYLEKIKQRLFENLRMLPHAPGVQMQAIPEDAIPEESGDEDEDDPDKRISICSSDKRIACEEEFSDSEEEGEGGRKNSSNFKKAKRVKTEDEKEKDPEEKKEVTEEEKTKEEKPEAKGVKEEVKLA

`C[C@H](CN(C)Cc1ccccc1)NC(=O)c1ccc(-c2noc(C(F)(F)F)n2)nc1`: the IC50 (in test [1]; at Histone deacetylase 1) was more than 10 µM each time.

`CCN(CC)C[C@@H](C)NC(=O)c1ccc(-c2noc(C(F)(F)F)n2)nc1`: the IC50 (in test [1]; at Histone deacetylase 1) was more than 10 µM throughout.
